Test systems include NCI-H460 lung; KM12 colon; SNB-19 CNS; SF-539 CNS; M14 melanoma; MOLT-4 leukemia; UACC-257 melanoma; MCF7 breast; HCT-15 colon; PC-3 prostate.
What all share (test): growth of human tumour cells (NCI), 48 h

Data on eight compounds can be found in PubChem BioAssay (NCI).

Molecules are shown by their SMILES. “And” between values parts separate entries of the source, which are not always exact repeats. Equal values may be shown once.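 These data come from cells grown in 96-well plates and exposed to compound for 48 hours at five concentrations. GI50 = concentration required for 50% inhibition of growth. The concentration for full growth arrest is given as TGI.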

For the compound `COc1cc(-c2cc(-c3ccc(N(C)C)cc3)nc(N3CCC(O)CC3)c2C#N)cc(OC)c1OC`, the GI50 with NCI-H460 lung was 249 nM; with KM12 colon, 579 nM; in the assay with SNB-19 CNS it was 2440 nM; with SF-539 CNS, 820 nM; in the assay on M14 melanoma, 282 nM; with MOLT-4 leukemia, 706 nM. Besides, the GI50 is 300 nM in the assay on UACC-257 melanoma, 626 nM in the assay with MCF7 breast, 306 nM with HCT-15 colon and 895 nM in the assay with PC-3 prostate. The TGI is 1.9 µM in the assay with NCI-H460 lung; 4 µM in the assay with KM12 colon; 23.8 µM with SNB-19 CNS; 3.24 µM in the assay with SF-539 CNS; 1300 nM in the assay with M14 melanoma; 10.7 µM with MOLT-4 leukemia. For the same compound, the TGI in the assay on UACC-257 melanoma is 0.969 µM; in the assay with MCF7 breast, 3.42 µM; in the assay on HCT-15 colon it was 1.86 µM; with PC-3 prostate, greater than 100 µM.

As for `O=C(Nc1ccc(Cl)cc1)NS(=O)(=O)c1ccc2c(c1)CCC2`, the GI50 is 7.71 µg/mL in the assay with NCI-H460 lung; 19.1 µg/mL in the assay on KM12 colon; 18.6 µg/mL in the assay with SNB-19 CNS; 17.6 µg/mL with SF-539 CNS; 20.2 µg/mL with M14 melanoma; 19.7 µg/mL in the assay on MOLT-4 leukemia. Moreover, the GI50 with UACC-257 melanoma is 27.8 µg/mL; in the assay with HCT-15 colon it was 16.3 µg/mL. Moreover, the TGI in the assay with NCI-H460 lung was > 46.4 µM and 36.6 µg/mL; with KM12 colon it was 98.9 µM and 40.2 µg/mL; in the assay on SNB-19 CNS it was > 100 µM and 53.5 µg/mL; in the assay on SF-539 CNS, > 69.2 µM and 37 µg/mL; in the assay with M14 melanoma it was 97.5 µM and 45.1 µg/mL; in the assay on MOLT-4 leukemia it was 98.2 µM and 74.6 µg/mL. Further, the TGI is > 100 µM and 80.6 µg/mL in the assay on UACC-257 melanoma; 81.8 µM in the assay with MCF7 breast; > 90.2 µM and 41.8 µg/mL in the assay with HCT-15 colon; 47.3 µM in the assay on PC-3 prostate.

Take `Cc1ncc(C(=O)Nc2ccc(CN3CCN(C)CC3)c(C(F)(F)F)c2)cc1C#Cc1c(N)ncc2ccc(C#N)cc12`: the GI50 in the assay with NCI-H460 lung is 4050 nM; in the assay with KM12 colon it was 5 nM; in the assay with SNB-19 CNS, 6710 nM; with SF-539 CNS it was 1140 nM; in the assay with M14 melanoma it was 29 nM; with MOLT-4 leukemia it was 1030 nM. Further, the GI50 in the assay with UACC-257 melanoma is 473 nM; with MCF7 breast, 693 nM; with HCT-15 colon, 547 nM; in the assay on PC-3 prostate, 4490 nM. For the same compound, the TGI in the assay on NCI-H460 lung is 12.1 µM; in the assay with KM12 colon it was 2.09 µM; with SNB-19 CNS it was 15.6 µM; in the assay on SF-539 CNS, 8.06 µM; in the assay with M14 melanoma, 659 nM; in the assay with MOLT-4 leukemia, 19.4 µM. For the same compound, the TGI in the assay on UACC-257 melanoma was found to be 10.5 µM; in the assay on MCF7 breast, 11.4 µM; with HCT-15 colon, 8.86 µM; in the assay on PC-3 prostate, 19.3 µM.

Turning to `Cc1cc(Cl)n2c(nc3ccccc32)c1C#N`, the GI50 is 600 nM with NCI-H460 lung; 341 nM in the assay with KM12 colon; 2440 nM in the assay with SNB-19 CNS; 576 nM in the assay on SF-539 CNS; 395 nM in the assay with M14 melanoma; 1060 nM in the assay on MOLT-4 leukemia. The GI50 is 727 nM in the assay on UACC-257 melanoma, 158 nM with MCF7 breast, 530 nM with HCT-15 colon and 383 nM in the assay with PC-3 prostate. The TGI in the assay with NCI-H460 lung was found to be 8.9 µM; in the assay on KM12 colon it was 1.44 µM; with SNB-19 CNS, 15.6 µM; in the assay with SF-539 CNS it was 7.86 µM; with M14 melanoma it was 2040 nM; with MOLT-4 leukemia, 22.8 µM. Also, the TGI in the assay with UACC-257 melanoma amounted to 4.8 µM; in the assay on MCF7 breast, 2.3 µM; in the assay with HCT-15 colon it was 4.12 µM; in the assay on PC-3 prostate it was 1.6 µM.

As to `COC1CC(OC2OC(CO)C(O)C(O)C2O)/C(=C\C#N)C(O)C1OC` (stereo not drawn), the TGI with NCI-H460 lung is greater than 100 µM; with KM12 colon, greater than 100 µM; with SNB-19 CNS it was greater than 100 µM; in the assay on SF-539 CNS, greater than 100 µM; in the assay with M14 melanoma, greater than 100000 nM; with MOLT-4 leukemia, greater than 100 µM. Further, the TGI in the assay with UACC-257 melanoma, in the assay on MCF7 breast, in the assay with HCT-15 colon and in the assay with PC-3 prostate was greater than 100 µM throughout.

As to `CC(=O)NC1(C)CCC(C(C)(C)NC(C)=O)CC1` (stereo not drawn), the TGI was greater than 100 µM with NCI-H460 lung; greater than 100 µM in the assay on KM12 colon; greater than 100 µM with SNB-19 CNS; greater than 100 µM in the assay with SF-539 CNS; greater than 100000 nM in the assay with M14 melanoma; greater than 100 µM in the assay with MOLT-4 leukemia. Moreover, the TGI in the assay on UACC-257 melanoma, in the assay with MCF7 breast, with HCT-15 colon and in the assay on PC-3 prostate was greater than 100 µM each time.

Take `CC(C)(O)Cn1c(=O)c(Oc2ccc(F)cc2F)cc2cnc(NC3CCOCC3)nc21`: the GI50 in the assay with NCI-H460 lung, in the assay with KM12 colon, in the assay with SNB-19 CNS, in the assay with SF-539 CNS, with M14 melanoma and with MOLT-4 leukemia was greater than 25000 nM throughout. The GI50 in the assay on UACC-257 melanoma, with MCF7 breast, with HCT-15 colon and with PC-3 prostate was greater than 25000 nM throughout. Moreover, the TGI is greater than 25 µM in the assay with NCI-H460 lung; greater than 25 µM in the assay with KM12 colon; greater than 25 µM in the assay with SNB-19 CNS; greater than 25 µM with SF-539 CNS; greater than 25000 nM with M14 melanoma; greater than 25 µM in the assay with MOLT-4 leukemia. The TGI in the assay with UACC-257 melanoma, in the assay with MCF7 breast, in the assay with HCT-15 colon and in the assay with PC-3 prostate was greater than 25 µM each time.

For `COc1ccc(C2SC(N)=Nc3c2c(C)nn3C(=O)c2ccncc2)cc1` (stereo not drawn), the TGI in the assay with NCI-H460 lung is greater than 100 µM; in the assay with KM12 colon it was greater than 100 µM; in the assay with SNB-19 CNS, greater than 100 µM; in the assay on SF-539 CNS it was greater than 100 µM; with M14 melanoma, greater than 100000 nM; in the assay with MOLT-4 leukemia, greater than 100 µM. The TGI in the assay with UACC-257 melanoma, with MCF7 breast, in the assay on HCT-15 colon and in the assay on PC-3 prostate was greater than 100 µM each time.
